One may read the melting point as the temperature, or range, at which the solid turns liquid. In turn, `CC(C)c1c(C=CC(=O)CC(O)CC(=O)O)c(-c2ccccc2)c2c3ccccc3ccn12` (configuration not stated) registered a melting point of 95 to 100 °C.

Take `Oc1ccc(-c2cc(O)ccc2-c2cc3cc(O)ccc3o2)cc1`: the melting point lay in the range of 238 to 239 °C.

`Oc1ccc2ccc(OCc3nc4ccccc4s3)cc2c1` registered a melting point of 205 to 207 °C.

`C=Cc1cc(OC(C)=O)cc2nc(-c3ccc(OC(C)=O)c(F)c3)oc12` registered a melting point of 154 to 156 °C.

`Cc1ccc(C(=C/C=C/CO)c2ccc(C)cc2)cc1`: the melting point lay in the range of 82 to 83 °C.

For the molecule `CC(C)C(NC(=O)OCC1c2ccccc2-c2ccccc21)C(=O)Nc1n[nH]c(=S)s1` (configuration not stated), the melting point was in the range of 141 to 144 °C.

Molecule `CCC(=O)Nc1ncc(Sc2ccc(N)cc2)s1` registered a melting point of 185 to 187 °C.

The molecule `COC(C)=C(Cl)C(=O)Nc1ccccc1` displayed a melting point of 100 °C.

Turning to `O=C1CCC(C2CO2)N1Cc1ccccc1Cl` (configuration not stated), the melting point was in the range of 81 to 83 °C.

In turn, `O=C(O)c1cn(Cc2ccc(Oc3ccccc3)cc2)nc1OCc1ccc(Oc2ccccc2)cc1` yielded a melting point of 141 to 142 °C.

As for `CC(=O)c1cncn1C1c2ccccc2CC1(C)C` (configuration not stated), the melting point lay within 69 to 70 °C.

`COc1cc(C=CNC(C)=O)ccc1OCC1CO1` (configuration not stated) came in with a melting point of 173 to 174 °C.

As to `O=C(O)COc1cccc(C(O)C(c2ccccc2)C2SCCCS2)c1` (configuration not stated), the melting point lay in the range of 99 to 101 °C.

For `O=c1[nH]c2ccc(S(=O)(=O)N3CCN(c4ccccn4)CC3)c3c2c2c(cccc12)C3`, the melting point was 263 to 270 °C.

Take `O=S(Cc1ccccn1)c1ccc(F)cc1` (configuration not stated): the melting point lay in the range of 92 to 94 °C.

Take `COC(=O)c1cccc(-c2cccc(Oc3cccc(Cl)c3Cl)n2)c1`: the melting point was 105 to 106 °C.

Consider `O=C1C=CC(O)(c2cnc3ccccc3c2)C=C1`, for which the melting point fell in the range of 183 to 184 °C.

Consider `CSc1ccc(/C=C/C2=CC(=O)C(C)(C)O2)cc1`, for which the melting point lay in the range of 98 to 99.5 °C.

Consider `CC(C)CN1C(=O)[C@H](CCCC#N)C[C@H]1CO`, for which the melting point was 46 to 48 °C.

Molecule `CC(C)COc1ccc2sc(-c3ccccn3)nc(=O)c2c1` had a melting point of 136 °C.

For the molecule `CCn1c2ccccc2c2cc(OC)c(C(=O)O)cc21`, the melting point is 130 to 147 °C.

Consider `CC(=O)OC(CCCN1CCN(c2ncc(F)cn2)CC1)c1ccc(F)cc1` (configuration not stated), for which the melting point was in the range of 76 to 77 °C.

As for `O=C1C2=C(SCCN2)C2CSCCN12` (configuration not stated), the melting point came to 142 °C.

Turning to `COc1cc2c(Nc3cccc(Cl)c3F)ncnc2cc1OC1CCN(C(=O)[C@@H](O)C(C)(C)C)CC1`, the melting point lay in the range of 205 to 206 °C.

Turning to `COC(=O)C1CCCCc2c1ncn2C(c1ccccc1)(c1ccccc1)c1ccccc1` (configuration not stated), the melting point lay within 161 to 163 °C.

Consider `COc1ccc(-c2c(Br)c(CBr)nc3sc4c(c23)CCN(Cc2ccccc2)C4)cc1`, for which the melting point fell in the range of 177 to 178 °C.

With `COCOc1c2c(cc3ccccc13)N(C(=O)OC(C)(C)C)CC2CCl` (configuration not stated), the melting point lay in the range of 99 to 101 °C.

`O=C1c2cc(Cl)c(Cl)cc2CN2C(=NO)CCC12` (configuration not stated) gave a melting point of 245 to 246 °C.

For `COc1ccc(-c2nc3cc(OC)cc(-c4ccco4)c3o2)cc1`, the melting point is 120 to 121 °C.

Regarding `OCCCc1cnoc1-c1ccc(-c2ccccc2)cc1`, the melting point lay in the range of 94 to 95 °C.

Consider `CCCc1cc(=O)oc2c(C=O)c(O)c3c(c12)OC(C)(C)C=C3`, for which the melting point fell in the range of 116 to 117 °C.

Take `COc1cccc2c(CC(=O)OCC(=O)CCc3ccccc3)coc12`: the melting point was in the range of 68 to 69 °C.

The molecule `CCNC(=O)n1nc(Oc2c(Cl)cc(C(F)(F)F)cc2Cl)cc1COC` displayed a melting point of 106 to 108 °C.

Regarding `O=c1[nH]sc2nc(-c3ccccc3)nc(CCc3ccccc3)c12`, the melting point was 144 to 147 °C.

Turning to `CCS(=O)(=O)NC1CCCOc2ccccc21` (configuration not stated), the melting point lay in the range of 109 to 111 °C.

`CCOC(=O)N1C=CN(c2ccccc2)C1C#N` (configuration not stated) displayed a melting point of 109 to 111 °C.

Consider `CCc1[nH]n(C2CCCC2)c2nc(C3CCNC4CCCCC43)nc(=O)c1-2` (configuration not stated), for which the melting point is above 300 °C.

The molecule `COc1ccc2c(n1)CCC(=NO)C2` displayed a melting point of 124 to 126 °C.

Take `CC(C)c1cc(O)cc2c1C(=O)N(CSc1ccccc1)S2(=O)=O`: the melting point was 127 to 130 °C.

Turning to `CC(C)Oc1ccc(C(=O)[NH+]([O-])c2c(Cl)cncc2Cl)c2c1oc1ccccc12` (configuration not stated), the melting point was in the range of 247 to 248 °C.

`CCN(CC)CCn1nc2c3c(c(N)ccc31)Oc1ccccc1-2`: the melting point fell in the range of 78 to 80 °C.

In turn, `CCC(=O)NCC1CC1c1c(Cl)ccc2nn(C)cc12` (configuration not stated) came in with a melting point of 152 to 153 °C.

In turn, `O=[N+]([O-])c1sc(Oc2ccccc2)nc1Cl` yielded a melting point of 96 °C.

`CC(C)(O)c1cc(Cn2cncn2)cc(C(C)(C)C#N)c1` yielded a melting point of 152 to 154 °C.

The molecule `C=CCc1cc(NC(C)=O)ccc1O` returned a melting point of 82 to 85 °C.

As for `COc1ccc2c3c1OC1C(=O)CCC4(OC)C(C2)N(C)CCC314` (configuration not stated), the melting point fell in the range of 140 to 142 °C.

Take `CCOC(=O)C(=Cc1cccn2c(Br)cnc12)N=[N+]=[N-]`: the melting point lay in the range of 90 to 92 °C.

Molecule `CCOC(=O)c1cnc2c(c(C)nn2-c2ccccn2)c1O` came in with a melting point of 166 to 169 °C.

`CN1CC(CNCCC#N)CC2c3cccc4[nH]cc(c34)CC21` (configuration not stated) registered a melting point of 169 to 171 °C.

In turn, `CN(C)C1(C(N)=O)CCCCC1` registered a melting point of 65 to 69 °C.

Molecule `CN1N=C(c2ccccc2Cl)N(C)N=C1c1ccccc1Cl` registered a melting point of 148 to 149 °C.

`COc1ccc2c(c1)CCC(=O)C2CC(=O)c1ccccc1` (configuration not stated) registered a melting point of 55 to 59 °C.

Take `O=[N+]([O-])CS(=O)c1cccc2c1oc1ccccc12` (configuration not stated): the melting point lay in the range of 174 to 176 °C.

`COc1ccc2c(c1)OCC(c1ccc(C(F)(F)F)cc1)C2c1ccc(O)cc1` (configuration not stated): the melting point fell in the range of 211 to 213 °C.

`ONc1ccc(Cl)cc1` yielded a melting point of 83 to 84 °C.

In the case of `CC(C)N(CCOC1CCCC2Oc3ccccc3OC12)C(C)C` (configuration not stated), the melting point came to 63.4 °C.

For the molecule `NS(=O)(=O)C1Cc2ccccc2CC1=O` (configuration not stated), the melting point is 145 to 146 °C.

Regarding `Clc1ccc2ncn3cnnc3c2c1`, the melting point lay in the range of 179 to 182 °C.

Regarding `CC(C)CCS(=O)(=O)NC(=O)/C=C/c1cc(OC2CCOCC2)nn1Cc1ccc(Cl)cc1Cl`, the melting point is 143 to 144 °C.

Regarding `Cc1ncn(C(=O)Nc2cc(Cl)cc(Cl)c2)c1Cl`, the melting point lay in the range of 137 to 139 °C.

In turn, `CCOCCCN(C)Cc1ccc(NC(=O)C2=Cc3cc(-c4ccc(OCC)cc4)ccc3S(=O)(=O)CC2)cc1` had a melting point of 197 to 198 °C.

Molecule `Cc1c(SCCCN2CCN(Cc3ccc(Cl)s3)CC2)ccnc1CS(=O)c1nc2ccccc2[nH]1` (configuration not stated) came in with a melting point of 54 to 58 °C.

Take `Cn1cc(-c2cccc(C(F)(F)F)c2)c(=O)c(-c2ccc(Cl)c(Cl)c2)c1`: the melting point lay in the range of 109 to 112 °C.

Turning to `CSc1cccc2c3c(n(Cc4ccc(Cl)cc4)c12)C(CC(=O)O)CCC3` (configuration not stated), the melting point is 141 to 142 °C.

`NC(=O)c1ccccc1NC(=O)c1cccnc1` gave a melting point of 220 to 222 °C.

Consider `CS(=O)(=O)c1nnc(S(=O)(=O)Cc2ccc(Cl)cc2)s1`, for which the melting point was 159 to 160 °C.

The molecule `NCC1CCN(Cc2ccccc2)CC1` gave a melting point of 88 °C.

In the case of `Cn1cc(C2=C(c3c4n(c5ccccc35)CCCC4)C(=O)NC2=O)c2ccccc21`, the melting point lay within 286 to 289 °C.

As for `N#Cc1nn(-c2c(Cl)cc(C(F)(F)F)cc2Cl)c(N)c1C1C=CCCCC1` (configuration not stated), the melting point was in the range of 158 to 159 °C.

On to `COCCNCc1cccc(OCCCNc2nc(N)nn2C)c1`, for which the melting point was in the range of 61 to 62.5 °C.

`CCOC(=O)C1=C(C)NC(c2csc(C)n2)=NC1c1ccc(O)cc1` (configuration not stated) yielded a melting point of 208 to 210 °C.

On to `CCOC(=O)c1nc(C2CC2)nc(NCc2ccccc2)c1Cl`, for which the melting point fell in the range of 59 to 61 °C.

In the case of `Cc1nc(NC(=O)c2ccc(Cl)c(Cl)c2)sc1C(=O)NCc1ccccc1`, the melting point lay in the range of 212 to 214 °C.

On to `CC(=O)c1c(F)cc2c(=O)c(C(=O)O)cn(CCF)c2c1F`, for which the melting point was in the range of 215 to 216 °C.

The molecule `N=C(c1ccc(Cl)cc1)c1cc2ccccc2cn1` registered a melting point of 151 to 152 °C.

Turning to `COc1cccc(-c2cccc(OC3SCC(O)C(O)C3O)c2)n1` (configuration not stated), the melting point came to 206 °C.

Molecule `O=C(NCCCCCCOc1ccccc1C(=O)Nc1ccc(C(=O)N2CCCCc3ccccc32)cc1)c1ccccc1` had a melting point of 178 °C.

Regarding `COC(=O)CC/C(C)=C/Cc1c(OC)c(C)c2c(c1OS(=O)(=O)C(F)(F)F)C(=O)OC2`, the melting point was in the range of 53 to 55 °C.

Turning to `O=S(=O)(CCCCCOc1ccc(C2=C(c3ccccc3)CCCc3cc(O)ccc32)cc1)CCCC(F)(F)C(F)(F)F`, the melting point is 176 to 178 °C.

Take `CC[Si](CC)(CC)OC1CC2=CCC3C4CCC(=O)C4(C)CCC3C2(C)C(O[Si](CC)(CC)CC)C1` (configuration not stated): the melting point fell in the range of 99 to 100 °C.

`COc1ccc(C2=NN(C3Cc4ccccc4C3)C(=O)[C@H]3CC=CC[C@@H]23)cc1OC` (relative stereo) registered a melting point of 163 to 164 °C.

Consider `Cc1cc2c(c3c1NC(=O)C(C)(C)C3)OC(CBr)C2C` (configuration not stated), for which the melting point lay within 192 to 193 °C.

As for `CS(=O)c1ccc(-n2cnc3ccc(-c4nnc(SCc5cccc(F)c5)o4)cc32)cc1` (configuration not stated), the melting point is 137 to 138 °C.

As for `O=C(O)c1cnc2c3cc(NC(=O)C4CCCCC4)ccc3ncn2c1=O`, the melting point was in the range of 311 to 314 °C.

In turn, `CCOc1ccc(C(=O)Nc2ccccc2NC(=O)c2cccc(C(N)=NO)c2)cc1` had a melting point of 180 to 182 °C.

The molecule `Cc1noc(NS(=O)(=O)c2ccccc2-c2ccc(-c3ncccn3)cc2)c1C` came in with a melting point above 210 °C.

Take `O=C(c1ccccc1)c1ccc(-c2nc(CCl)co2)cc1`: the melting point was in the range of 138 to 139 °C.

For `CCNC(=O)n1nc(Oc2cc(OCC)ccc2[N+](=O)[O-])cc1C`, the melting point lay within 73 to 75 °C.

As for `COC(=O)N(N=C(C)C)C(=O)c1ccc(Br)cc1`, the melting point lay in the range of 103 to 104 °C.

In the case of `CC(C)CC(CC1CCCCC1)Cn1ccnc1` (configuration not stated), the melting point lay within 119 to 120 °C.

In the case of `Cc1ccc(S(=O)(=O)NCCCCOc2ccc(N)cc2)cc1`, the melting point is 176 to 178 °C.

`c1ccc2c(c1)OCCc1c-2n(CCN2CCCCC2)c2ccccc12`: the melting point turned out to be 103 °C.

These data come from a melting point compilation (Tetko et al.; mined from patent text by program, amines drawn as free bases though some values may be those of a salt).
